# According to patent publication US7135465B2, “Sustained release beadlets containing stavudine” (Bristol-Myers Squibb Company, priority 2000, dated 2006):
# Assay: Gamma scintigraphy studies of stavudine absorption
# Assay type: in vivo
# Protocol: It has been found in gamma scintigraphy studies that stavudine is well absorbed in the upper intestine. The absorption in the colon is approximately one half that of the small intestine. The optimal formulation would be designed to release approximately 40% of the stavudine in four hours and the remainder over the next twelve to twenty hours. A 100 mg. extended dosage form of stavudine, therefore, would be designed to have the same bioavailability as the commercial 40 mg. immediate release capsules given twice daily. […] A problem in the formulation of a suitable extended dosage form of stavudine is its sensitivity to moisture that causes it to hydrolyze, primarily into thymine. This moisture sensitivity has not been a problem with the commercial non-sustained release dosage form of stavudine because it is a dry granulation that is filled into hard gelatin capsules. However, sustained release dosage forms conventionally require different compounding procedures typically including a granulation step involving an aqueous medium. […] In accordance with the present invention, a method has been found whereby stavudine can be successfully compounded into an extended release formulation utilizing conventional techniques without appreciable loss of potency due to hydrolysis.
structure (smiles),measurement,value
"Cc1cn([C@H]2C=C[C@@H](CO)O2)c(=O)[nH]c1=O [stavudine, 3′-deoxy-2′,3′-didehydrothymidine]",absorption in the colon relative to that of the small intestine,approximately one half
same,absorption in the upper intestine,well absorbed
